For the assay, the target named is T1, recombinant human NK3 receptor (Homo sapiens, UniProt P29371).
T1 construct: expressed in transfected cells; host or cells: HEK293 cells (transient expression), membranes
T1 sequence (P29371 1-465): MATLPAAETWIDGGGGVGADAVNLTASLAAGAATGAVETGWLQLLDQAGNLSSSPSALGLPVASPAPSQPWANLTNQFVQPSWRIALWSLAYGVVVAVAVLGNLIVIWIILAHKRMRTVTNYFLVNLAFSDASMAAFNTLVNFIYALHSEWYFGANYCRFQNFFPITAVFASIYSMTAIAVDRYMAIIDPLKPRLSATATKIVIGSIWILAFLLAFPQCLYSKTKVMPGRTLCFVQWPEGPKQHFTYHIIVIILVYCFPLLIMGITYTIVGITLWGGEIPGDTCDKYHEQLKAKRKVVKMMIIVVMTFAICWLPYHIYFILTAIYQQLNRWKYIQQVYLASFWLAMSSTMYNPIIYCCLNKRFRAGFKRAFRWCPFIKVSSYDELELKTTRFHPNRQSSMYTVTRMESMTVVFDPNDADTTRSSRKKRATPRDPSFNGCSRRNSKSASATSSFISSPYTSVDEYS
As to the kind of experiment: [3H]SR142801 competition binding assay. The settings on record: membranes from HEK293 cells transiently expressing hNK3; [3H]SR142801 at its KD; 75 min RT; read-out: Data [μM] (affinity constant Ki, hNK3 receptor binding). As for the experimental part: [^3H]SR142801 Competition Binding Assay
hNK3 receptor binding experiment were performed using [^3H]SR142801 (Catalog No. TRK1035, specific activity: 74.0 Ci/mmol, Amersham, GE Healthcare UK limited, Buckinghamshire, UK) and membrane isolated from HEK293 cells transiently expressing recombinant human NK3 receptor. After thawing, the membrane homogenates were centrifuged at 48,000×g for 10 min at 4° C., the pellets were resuspended in the 50 mM Tris-HCl, 4 mM MnCl2, 1 μM phosphoramidon, 0.1% BSA binding buffer at pH 7.4 to a final assay concentration of 5 μg protein/well. […] At the end of the incubation, membranes were filtered onto unitfilter (96-well white microplate with bonded GF/C filter preincubated 1 h in 0.3% PEI+0.3% BSA, Packard BioScience, Meriden, Conn.) with a Filtermate 196 harvester (Packard BioScience) and washed 4 times with ice-cold 50 mM Tris-HCl, pH 7.4 buffer. Nonspecific binding was measured in the presence of 10 μM SB222200 for both radioligands. The radioactivity on the filter was counted (5 min) on a Packard Top-count microplate scintillation counter with quenching correction after addition of 45 μl of microscint 40 (Can berra Packard S. A., Zürich, Switzerland) and shaking for 1 h. Inhibition curves were fitted according to the Hill equation: y=100/(1+(x/IC50)^nH), where nH=slope factor using Excel-fit 4 software (Microsoft). IC50 values were derived from the inhibition curve and the affinity constant (Ki) values were calculated using the Cheng-Prussoff equation Ki=IC50/(1+[L]/KD) where [L] is the concentration of radioligand and KD is its dissociation constant at the receptor, derived from the saturation isotherm. All experiments were performed in duplicate and the mean±standard error (SEM) of the individual Ki values was calculated.

Consider `C[C@H](Oc1ccc(C#N)cn1)[C@H]1CN(C(=O)C2CCN(C(=O)C3(C)CC3)CC2)C[C@@H]1c1ccc(Cl)c(Cl)c1` (racemic) [Example 47, 6-((SR)-1-{(3RS,4SR)-4-(3,4-Dichloro-phenyl)-1-[1-(1-methyl-cyclopropanecarbonyl)-piperidine-4-carbonyl]-pyrrolidin-3-yl}-ethoxy)-nicotinonitrile], for which the Ki was 0.0019 µM.
For `C[C@H](Oc1ccc(C#N)cn1)[C@H]1CN(C(=O)C2CCN(C(=O)OC(C)(C)C)CC2)C[C@@H]1c1ccc(Cl)c(Cl)c1` (racemic) [Example 13, 4-[(3RS,4SR)-3-[(SR)-1-(5-Cyano-pyridin-2-yloxy)-ethyl]-4-(3,4-dichloro-phenyl)-pyrrolidine-1-carbonyl]-piperidine-1-carboxylic acid tert-butyl ester] the value was 0.0044 µM; for `CC(C)CN1CCC(C(=O)N2C[C@H]([C@H](C)Oc3ccc(Cl)cn3)[C@@H](c3ccc(Cl)c(Cl)c3)C2)CC1` (racemic) [Example 11, [(3RS,4SR)-3-[(SR)-1-(5-Chloro-pyridin-2-yloxy)-ethyl]-4-(3,4-dichloro-phenyl)-pyrrolidin-1-yl]-(1-isobutyl-piperidin-4-yl)-methanone], 0.0061 µM; for `C[C@H](Oc1ccc(C#N)cn1)[C@H]1CN(C(=O)[C@H]2CC[C@H](NC(=O)OC(C)(C)C)CC2)C[C@@H]1c1ccc(Cl)c(Cl)c1` (racemic) [Example 43, {4-[(3RS,4SR)-3-[(SR)-1-(5-Cyano-pyridin-2-yloxy)-ethyl]-4-(3,4-dichloro-phenyl)-pyrrolidine-1-carbonyl]-cyclohexyl}-carbamic acid tert-butyl ester], 0.007 µM.
`C[C@H](Oc1ccc(C#N)cn1)[C@H]1CN(C(=O)C2CCN(C(=O)C3(C)CC3)CC2)C[C@@H]1c1ccc(Cl)c(Cl)c1` (racemic) [Example 17, 6-((SR)-1-{(3RS,4SR)-4-(3,4-Dichloro-phenyl)-1-[1-(1-methyl-cyclopropanecarbonyl)-piperidine-4-carbonyl]-pyrrolidin-3-yl}-ethoxy)-nicotinonitrile]: the Ki came out at 0.0046 µM.
As to `CC(=O)N1CCC(C(=O)N2C[C@H]([C@H](C)Oc3ccc(C(F)(F)F)cn3)[C@@H](c3ccc(Cl)c(Cl)c3)C2)CC1` (racemic) [Example 46, 1-(4-{(3SR,4RS)-3-(3,4-Dichloro-phenyl)-4-[(SR)-1-(5-trifluoromethyl-pyridin-2-yloxy)-ethyl]-pyrrolidine-1-carbonyl}-piperidin-1-yl)-ethanone], the Ki turned out to be 0.0018 µM.
Take `C#C[C@H]1CC[C@H](C(=O)N2C[C@H]([C@H](C)Oc3ccc(Cl)cn3)[C@@H](c3ccc(Cl)c(Cl)c3)C2)CC1` (racemic) [Example 10, [(3RS,4SR)-3-[(SR)-1-(5-Chloro-pyridin-2-yloxy)-ethyl]-4-(3,4-dichloro-phenyl)-pyrrolidin-1-yl]-(4-ethynyl-cyclohexyl)-methanone]: the inhibition constant (Ki) was 0.009 µM.
For the compound `C[C@H](Oc1ccc(Cl)cn1)[C@H]1CN(C(=O)C2CCN(C(=O)C3(C)CC3)CC2)C[C@@H]1c1ccc(Cl)c(F)c1` [Example 53, {(3S,4R)-3-(4-Chloro-3-fluoro-phenyl)-4-[(S)-1-(5-chloro-pyridin-2-yloxy)-ethyl]-pyrrolidin-1-yl}-[1-(1-methyl-cyclopropanecarbonyl)-piperidin-4-yl]-methanone], the inhibition constant Ki turned out to be 0.0008 µM.
The same measure for `COC[C@H]1CC[C@H](C(=O)N2C[C@H]([C@H](C)Oc3ccc(Cl)cn3)[C@@H](c3ccc(Cl)c(Cl)c3)C2)CC1` (racemic) [Example 6, [(3RS,4SR)-3-[(SR)-1-(5-Chloro-pyridin-2-yloxy)-ethyl]-4-(3,4-dichloro-phenyl)-pyrrolidin-1-yl]-(4-methoxymethyl-cyclohexyl)-methanone]: 0.0058 µM; for `C[C@H](Oc1ccc(C#N)cn1)[C@H]1CN(C(=O)C2CCN(C(=O)C3(N)CC3)CC2)C[C@@H]1c1ccc(Cl)c(Cl)c1` (racemic) [Example 19, 6-{(SR)-1-[(3RS,4SR)-1-[1-(1-Amino-cyclopropanecarbonyl)-piperidine-4-carbonyl]-4-(3,4-dichloro-phenyl)-pyrrolidin-3-yl]-ethoxy}-nicotinonitrile]: 0.0077 µM; for `C[C@H](Oc1ccc(Cl)cn1)[C@H]1CN(C(=O)C2CCN(C(=O)C3(C)CC3)CC2)C[C@@H]1c1ccc(Cl)cc1` [Example 52, {(3S,4R)-3-(4-Chloro-phenyl)-4-[(S)-1-(5-chloro-pyridin-2-yloxy)-ethyl]-pyrrolidin-1-yl}-[1-(1-methyl-cyclopropanecarbonyl)-piperidin-4-yl]-methanone]: 0.001 µM.
For the compound `COC(=O)N[C@H]1CC[C@H](C(=O)N2C[C@H]([C@H](C)Oc3ccc(Cl)cn3)[C@@H](c3ccc(Cl)c(Cl)c3)C2)CC1` (racemic) [Example 5, {4-[(3RS,4SR)-3-[(SR)-1-(5-Chloro-pyridin-2-yloxy)-ethyl]-4-(3,4-dichloro-phenyl)-pyrrolidine-1-carbonyl]-cyclohexyl}-carbamic acid methyl ester], the Ki was 0.0095 µM.
For `C[C@H](Oc1ccc(Cl)cn1)[C@H]1CN(C(=O)C2CCN(C(=O)C3CCC3)CC2)C[C@@H]1c1ccc(Cl)c(Cl)c1` (racemic) [Example 3, [(3RS,4SR)-3-[(SR)-1-(5-Chloro-pyridin-2-yloxy)-ethyl]-4-(3,4-dichloro-phenyl)-pyrrolidin-1-yl]-(1-cyclobutanecarbonyl-piperidin-4-yl)-methanone], the inhibition constant Ki is 0.0012 µM.
The same measure for `C[C@H](Oc1ccc(Cl)cn1)[C@H]1CN(C(=O)C2CCC(=O)CC2)C[C@@H]1c1ccc(Cl)c(Cl)c1` (racemic) [Example 12, 4-[(3RS,4SR)-3-[(SR)-1-(5-Chloro-pyridin-2-yloxy)-ethyl]-4-(3,4-dichloro-phenyl)-pyrrolidine-1-carbonyl]-cyclohexanone]: 0.0092 µM; for `C[C@H](Oc1ccc(C#N)cn1)[C@H]1CN(C(=O)C2CCN(C(=O)C3CC3)CC2)C[C@@H]1c1ccc(Cl)c(Cl)c1` (racemic) [Example 14, 6-{(SR)-1-[(3RS,4SR)-1-(1-Cyclopropanecarbonyl-piperidine-4-carbonyl)-4-(3,4-dichloro-phenyl)-pyrrolidin-3-yl]-ethoxy}-nicotinonitrile]: 0.0049 µM.
In the case of `C[C@H](Oc1ccc(C#N)cn1)[C@H]1CN(C(=O)C2CCN(C(=O)C3CC(=O)C3)CC2)C[C@@H]1c1ccc(Cl)c(Cl)c1` (racemic) [Example 21, 6-((SR)-1-{(3RS,4SR)-4-(3,4-Dichloro-phenyl)-1-[1-(3-oxo-cyclobutanecarbonyl)-piperidine-4-carbonyl]-pyrrolidin-3-yl}-ethoxy)-nicotinonitrile], the Ki was determined as 0.0021 µM.
Turning to `C[C@H](Oc1ccc(C#N)cn1)[C@H]1CN(C(=O)C2CCN(C(=O)C3CCC3)CC2)C[C@@H]1c1ccc(Cl)c(Cl)c1` (racemic) [Example 20, 6-{(SR)-1-[(3RS,4SR)-1-(1-Cyclobutanecarbonyl-piperidine-4-carbonyl)-4-(3,4-dichloro-phenyl)-pyrrolidin-3-yl]-ethoxy}-nicotinonitrile], the inhibition constant Ki is 0.0026 µM.
In the case of `C[C@H](Oc1ccc(C#N)cn1)[C@H]1CN(C(=O)C2CCN(C(=O)CC#N)CC2)C[C@@H]1c1ccc(Cl)c(Cl)c1` (racemic) [Example 23, 6-{(SR)-1-[(3RS,4SR)-1-[1-(2-Cyano-acetyl)-piperidine-4-carbonyl]-4-(3,4-dichloro-phenyl)-pyrrolidin-3-yl]-ethoxy}-nicotinonitrile], the Ki was 0.0075 µM.
With `COCC(=O)N1CCC(C(=O)N2C[C@H]([C@H](C)Oc3ccc(C#N)cn3)[C@@H](c3ccc(Cl)c(Cl)c3)C2)CC1` (racemic) [Example 24, 6-((SR)-1-{(3RS,4SR)-4-(3,4-Dichloro-phenyl)-1-[1-(2-methoxy-acetyl)-piperidine-4-carbonyl]-pyrrolidin-3-yl}-ethoxy)-nicotinonitrile], the Ki came to 0.0036 µM.

The term Ki denotes the equilibrium dissociation constant of an inhibitor or competing ligand from its target.

The record behind these values is US8063075B2, “Pyrrolidine ether derivatives as NK3 receptor antagonists” (Hoffmann-La Roche Inc., priority 2008, dated 2011).
